These results are taken from PubChem BioAssay AID330 (DTP/NCI, 2004).

The subject of the experiment is P388 leukemia ip, CD2F1 mice, survival T/C. Kind of experiment: NCI In Vivo Anticancer Drug Screen. Data for tumor model P388 Leukemia (intraperitoneal) in CD2F1 (CDF1) mice. The settings on record: endpoint: median survival time, higher = longer survival. An outline of the steps: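 Mice carrying the transplanted tumor received test compound or vehicle. Survival was recorded in each group, and the value is the treated-group measurement divided by that of the vehicle-treated control group.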

[1] abbreviates: dose: 50.0 mg/kg/injection, schedule: Q01DX009 (ip), vehicle: saline with Tween-80.
Setting [2] is: dose: 100.0 mg/kg/injection, schedule: Q01DX009 (ip), vehicle: saline with Tween-80.
The mark [3] stands for this setting: dose: 200.0 mg/kg/injection, schedule: Q01DX009 (ip), vehicle: saline with Tween-80.
Setting [4] is: dose: 50.0 mg/kg/injection, schedule: Q01DX005 (ip), vehicle: saline with Tween-80.
The mark [5] stands for this setting: dose: 100.0 mg/kg/injection, schedule: Q01DX005 (ip), vehicle: saline with Tween-80.
The mark [6] stands for this setting: dose: 200.0 mg/kg/injection, schedule: Q01DX005 (ip), vehicle: saline with Tween-80.
Where [7] appears, read: dose: 60.0 mg/kg/injection, schedule: Q01DX005 (ip), vehicle: saline with Tween-80.
[8] abbreviates: dose: 120.0 mg/kg/injection, schedule: Q01DX005 (ip), vehicle: saline with Tween-80.
[9] abbreviates: dose: 240.0 mg/kg/injection, schedule: Q01DX005 (ip), vehicle: saline with Tween-80.

Structures are written as SMILES. Several values for one entry are separate records, joined by “and”; a condition that tells them apart may be missing. Identical values can stand only once. Inconclusive results and toxic doses are left out.

For the compound `O=C1CC(c2ccc(OCN(CCCl)CCCl)cc2)CC(=O)C1CN(CCCl)CCCl` (centres undefined), the T/C by setting is: (dose: 2.0 mg/kg/injection, schedule: Q01DX009 (ip), vehicle: Klucel (hydroxypropylcellulose) (HPC)) 117 % of control; (dose: 4.0 mg/kg/injection, schedule: Q01DX009 (ip), vehicle: Klucel (hydroxypropylcellulose) (HPC)) 160 % of control; (dose: 8.0 mg/kg/injection, schedule: Q01DX009 (ip), vehicle: Klucel (hydroxypropylcellulose) (HPC)) 153 % of control; (dose: 16.0 mg/kg/injection, schedule: Q01DX009 (ip), vehicle: Klucel (hydroxypropylcellulose) (HPC)) 166 % of control and 173 % of control; (dose: 32.0 mg/kg/injection, schedule: Q01DX009 (ip), vehicle: Klucel (hydroxypropylcellulose) (HPC)) 190 % of control.
For `C[n+]1c2n(c3ccccc31)CCn1c-2[n+](C)c2ccccc21`, the T/C (dose: 12.5 mg/kg/injection, schedule: Q01DX009 (ip), vehicle: Klucel (hydroxypropylcellulose) (HPC)) was 100 % of control and 103 % of control and 117 % of control; the T/C (dose: 25.0 mg/kg/injection, schedule: Q01DX009 (ip), vehicle: Klucel (hydroxypropylcellulose) (HPC)) is 102 % of control and 103 % of control (2×); the T/C (dose: 50.0 mg/kg/injection, schedule: Q01DX009 (ip), vehicle: Klucel (hydroxypropylcellulose) (HPC)) was 100 % of control and 120 % of control and 96 % of control.
For `O=C1CC(c2ccc(Cl)cc2Cl)Oc2ccc(Cl)cc21` (centres undefined), the T/C runs as follows: (dose: 6.25 mg/kg/injection, schedule: Q01DX009 (ip), vehicle: saline with Tween-80) 95 % of control; (dose: 12.5 mg/kg/injection, schedule: Q01DX009 (ip), vehicle: saline with Tween-80) 96 % of control; (dose: 25.0 mg/kg/injection, schedule: Q01DX009 (ip), vehicle: saline with Tween-80) 95 % of control; under setting [1], 89 % of control; under setting [2], 87 % of control and 90 % of control; under setting [3], 90 % of control. Further, the T/C (dose: 400.0 mg/kg/injection, schedule: Q01DX009 (ip), vehicle: saline with Tween-80) was 96 % of control.
On to `CCN(CC)CCNC(=O)c1nn(-c2ccccc2)c2c1CCc1ccccc1-2`, for which the T/C (dose: 25.0 mg/kg/injection, schedule: Q04DX003 (ip), vehicle: saline) was 100 % of control; the T/C (dose: 50.0 mg/kg/injection, schedule: Q04DX003 (ip), vehicle: saline) is 101 % of control; the T/C (dose: 100.0 mg/kg/injection, schedule: Q04DX003 (ip), vehicle: saline) is 102 % of control and 107 % of control.
With `CCOc1ccc(N=Nc2c(-c3ccccc3)nn(C(=S)S)c2-c2ccccc2)cc1`, the T/C is, setting by setting: under setting [4], 88 % of control; under setting [5], 92 % of control; under setting [6], 90 % of control.
`CCOC(=O)c1c(C)noc1NC`: the T/C (dose: 60.0 mg/kg/injection, schedule: Q01DX005 (ip), vehicle: Klucel (hydroxypropylcellulose) (HPC)) is 100 % of control; the T/C (dose: 120.0 mg/kg/injection, schedule: Q01DX005 (ip), vehicle: Klucel (hydroxypropylcellulose) (HPC)) was 101 % of control; the T/C (dose: 240.0 mg/kg/injection, schedule: Q01DX005 (ip), vehicle: Klucel (hydroxypropylcellulose) (HPC)) is 100 % of control.
For `C=CCn1c(-c2ccccc2Cl)n[nH]c1=S`, the T/C runs as follows: under setting [1], 102 % of control; under setting [2], 95 % of control; under setting [3], 99 % of control.
For the compound `CC(=O)OCC(=O)[C@@]1(O)CC[C@H]2[C@@H]3C[C@H](C)C4=CC(=O)C=C[C@]4(C)[C@@]3(F)[C@@H](O)C[C@@]21C`, the T/C was 109 % of control (dose: 50.0 mg/kg/injection, schedule: Q04DX003 (ip), vehicle: saline with Tween-80); 100 % of control under setting [2]; 118 % of control (dose: 100.0 mg/kg/injection, schedule: Q04DX003 (ip), vehicle: saline with Tween-80); 90 % of control under setting [3]; 118 % of control (dose: 200.0 mg/kg/injection, schedule: Q04DX003 (ip), vehicle: saline with Tween-80).
Take `C=C(C)[C@]12CC(C)C34OC(/C=C\C=C\CCCCCCCCC)(O[C@@H]1[C@@H]3[C@@H]1O[C@]1(CO)[C@@H](O)[C@]1(O)C(=O)C(C)=C[C@@H]41)O2` (some centres undefined): the T/C was 160 % of control (dose: 0.75 mg/kg/injection, schedule: Q01DX009 (ip), vehicle: alcohol); 160 % of control and 163 % of control (dose: 1.5 mg/kg/injection, schedule: Q01DX009 (ip), vehicle: alcohol).
Regarding `O=[N+]([O-])c1ccc(Br)cc1`, the T/C (dose: 50.0 mg/kg/injection, schedule: Q01DX009 (ip), vehicle: saline) is 106 % of control; the T/C (dose: 100.0 mg/kg/injection, schedule: Q01DX009 (ip), vehicle: saline) was 108 % of control; the T/C (dose: 200.0 mg/kg/injection, schedule: Q01DX009 (ip), vehicle: saline) was 101 % of control.
Turning to `O=C(N=C1C(=O)C2(CCCCC2)C2(N=C(c3ccccc3)OC2=O)C12CCCCC2)c1ccccc1` (centres undefined), the T/C was 107 % of control under setting [7], 100 % of control under setting [8] and 100 % of control under setting [9].
On to `CCCN1CCc2cc3c(cc2C1)OCO3`, for which the T/C was 93 % of control (dose: 60.0 mg/kg/injection, schedule: Q01DX005 (ip), vehicle: saline) and 91 % of control (dose: 120.0 mg/kg/injection, schedule: Q01DX005 (ip), vehicle: saline).
On to `CC1=CC(=O)N2CC(=O)N(C)c3ccc(Cl)cc3C2(c2ccccc2)O1` (centres undefined), for which the T/C (dose: 50.0 mg/kg/injection, schedule: Q01DX005 (ip), vehicle: Klucel (hydroxypropylcellulose) (HPC)) was 104 % of control; the T/C (dose: 100.0 mg/kg/injection, schedule: Q01DX005 (ip), vehicle: Klucel (hydroxypropylcellulose) (HPC)) was 92 % of control; the T/C (dose: 200.0 mg/kg/injection, schedule: Q01DX005 (ip), vehicle: Klucel (hydroxypropylcellulose) (HPC)) is 92 % of control.
Turning to `CC(=O)NCCc1nc(-c2nc(C(=O)NCCC(C)C)cs2)cs1`, the T/C was 92 % of control (dose: 12.5 mg/kg/injection, schedule: Q01DX009 (ip), vehicle: distilled water + Tween-80); 94 % of control (dose: 25.0 mg/kg/injection, schedule: Q01DX009 (ip), vehicle: distilled water + Tween-80); 98 % of control (dose: 50.0 mg/kg/injection, schedule: Q01DX009 (ip), vehicle: distilled water + Tween-80); 102 % of control (dose: 100.0 mg/kg/injection, schedule: Q01DX009 (ip), vehicle: distilled water + Tween-80); 115 % of control (dose: 200.0 mg/kg/injection, schedule: Q01DX009 (ip), vehicle: distilled water + Tween-80).
As to `COC(=O)c1nnn(-c2cc(Cl)ccc2Cl)c1C(=O)c1ccc(OC)cc1`, the T/C under setting [7] is 95 % of control, the T/C under setting [8] is 100 % of control and the T/C under setting [9] is 89 % of control.
Consider `O=C(c1ccccc1)N1CC2CCC1CN2C(=O)c1ccccc1`, for which the T/C by setting is: (dose: 12.5 mg/kg/injection, schedule: Q01DX009 (ip), vehicle: other) 105 % of control; (dose: 25.0 mg/kg/injection, schedule: Q01DX009 (ip), vehicle: other) 105 % of control; (dose: 50.0 mg/kg/injection, schedule: Q01DX009 (ip), vehicle: other) 100 % of control; (dose: 100.0 mg/kg/injection, schedule: Q01DX009 (ip), vehicle: other) 100 % of control; (dose: 200.0 mg/kg/injection, schedule: Q01DX009 (ip), vehicle: other) 105 % of control.
As for `O=C(NP1(=O)NCc2ccccc2CN1)OC1CCCCC1`, the T/C (dose: 6.25 mg/kg/injection, schedule: Q01DX005 (ip), vehicle: Klucel (hydroxypropylcellulose) (HPC)) is 94 % of control; the T/C (dose: 12.5 mg/kg/injection, schedule: Q01DX005 (ip), vehicle: Klucel (hydroxypropylcellulose) (HPC)) was 99 % of control; the T/C (dose: 25.0 mg/kg/injection, schedule: Q01DX005 (ip), vehicle: Klucel (hydroxypropylcellulose) (HPC)) is 97 % of control.
For the compound `CNc1nc2ncnc(NC)c2[nH]1`, the T/C by setting is: under setting [4], 99 % of control; under setting [5], 92 % of control; under setting [6], 90 % of control.
With `CC(=O)Nc1ccn(C2OC(COC(C)=O)C(OC(C)=O)C2OC(C)=O)c(=O)n1` (centres undefined), the T/C is, setting by setting: (dose: 62.5 mg/kg/injection, schedule: Q01DX009 (ip), vehicle: Klucel (hydroxypropylcellulose) (HPC)) 102 % of control; (dose: 125.0 mg/kg/injection, schedule: Q01DX009 (ip), vehicle: Klucel (hydroxypropylcellulose) (HPC)) 119 % of control; (dose: 250.0 mg/kg/injection, schedule: Q01DX009 (ip), vehicle: Klucel (hydroxypropylcellulose) (HPC)) 157 % of control; (dose: 500.0 mg/kg/injection, schedule: Q01DX009 (ip), vehicle: Klucel (hydroxypropylcellulose) (HPC)) 155 % of control; (dose: 1000.0 mg/kg/injection, schedule: Q01DX009 (ip), vehicle: Klucel (hydroxypropylcellulose) (HPC)) 174 % of control.
